Test results taken from patent USRE48335E1, “Polymyxin derivatives as antimicrobial compounds” (priority 2014, dated 2020).
Converted amounts (≈) assume the structure as drawn. Like-named read-outs stand apart in the source and are kept apart here. Positions of bridges follow the written chain, without caps; N, C: chain ends. Non-standard residues stand in square brackets, D forms with d. Residues, ends and D or L forms follow the SMILES beside them. *: point of attachment. Phenylacetyl(4-Me) = Cc1ccc(CC(=O)*)cc1; Hydrocinnamoyl = O=C(CCc1ccccc1)*; Lauroyl = CCCCCCCCCCCC(=O)*; Octanoyl = CCCCCCCC(=O)*; Orn = NCCC[C@H](N)C(=O)O; X25 = Cc1cccc(C(=O)*)c1C; Dab = NCC[C@H](N)C(=O)O; X39 = O=C(Cc1ccccc1Cl)*; Abu = CC[C@H](N)C(=O)O; Dap = NC[C@H](N)C(=O)O; X34 = Cc1ccccc1CC(=O)*

How the values were obtained:
Acinetobacter baumannii = test system: Acinetobacter baumannii
Experimental: (§1) MICs of the lipopeptides (trifluoroacetic acid salt, TFA) were determined by broth microdilution in cation-adjusted Mueller-Hinton broth (CAMHB) (Oxoid Australia, Thebarton, SA, Australia) according to Clinical and Laboratory Standards Institute standards (Clinical and Laboratory Standards Institute. Performance standards for antimicrobial susceptibility testing; eighteenth informational supplement M100-S18. Wayne, Pa., 2008). Polymyxin B (sulphate) was employed as control. […]

Enterobacter cloacae = test system: Enterobacter cloacae
Experimental: as §1

Pseudomonas aeruginosa = test system: Pseudomonas aeruginosa
Experimental: as §1

## CCCCCCCC(=O)N[C@@H](CN)C(=O)N[C@H](C(=O)N[C@H](CO)C(=O)N[C@H]1CCNC(=O)[C@H]([C@@H](C)O)NC(=O)[C@H](CCN)NC(=O)[C@H](CCN)NC(=O)[C@H]([C@@H](C)O)NC(=O)[C@@H](CC(C)C)NC(=O)[C@H](CCN)NC1=O)[C@@H](C)O [Compound 13] (Octanoyl-[Dap]T[dS][Dab][Dab][dL]T[Dab][Dab]T; lactam 4-C)
Acinetobacter baumannii
  Minimum inhibitory concentration, Ab A ATCC 17978: 1 mg/L (≈ 0.896 µM)
  Minimum inhibitory concentration, Ab ATCC 19606: 1 mg/L (≈ 0.896 µM)
  Minimum inhibitory concentration, Ab FADDI-AB034: 0.5 mg/L (≈ 0.448 µM)
Enterobacter cloacae
  Minimum inhibitory concentration, Ec FADDI-EC001: 0.25 mg/L (≈ 0.224 µM)
  Minimum inhibitory concentration, Ec FADDI-EC003: 0.25 mg/L (≈ 0.224 µM)
  Minimum inhibitory concentration, Ec FADDI-EC006: 0.5 mg/L (≈ 0.448 µM)
Pseudomonas aeruginosa
  Minimum inhibitory concentration, Pa ATCC 27853: 4 mg/L (≈ 3.58 µM)
  Minimum inhibitory concentration, Pa FADDI-PA022: 4 mg/L (≈ 3.58 µM)
  Minimum inhibitory concentration, Pa FADDI-PA025: >32 mg/L

## CC[C@@H]1NC(=O)[C@@H](CC(C)C)NC(=O)[C@H](CCN)NC(=O)[C@@H](NC(=O)[C@H](CN)NC(=O)[C@@H](NC(=O)[C@H](CCN)NC(=O)Cc2ccccc2C)[C@@H](C)O)CCNC(=O)[C@H]([C@@H](C)O)NC(=O)[C@H](CCN)NC(=O)[C@H](CCN)NC1=O [Compound 76] (X34-[Dab]T[Dap][Dab][Dab][dL][Abu][Dab][Dab]T; lactam 4-C)
Acinetobacter baumannii
  Minimum inhibitory concentration, Ab A ATCC 17978: 1 mg/L (≈ 0.893 µM)
  Minimum inhibitory concentration, Ab ATCC 19606: 2 mg/L (≈ 1.79 µM)
  Minimum inhibitory concentration, Ab FADDI-AB034: 1 mg/L (≈ 0.893 µM)
Enterobacter cloacae
  Minimum inhibitory concentration, Ec FADDI-EC001: 0.25 mg/L (≈ 0.223 µM)
  Minimum inhibitory concentration, Ec FADDI-EC003: 0.25 mg/L (≈ 0.223 µM)
  Minimum inhibitory concentration, Ec FADDI-EC006: 0.5 mg/L (≈ 0.447 µM)
Pseudomonas aeruginosa
  Minimum inhibitory concentration, Pa ATCC 27853: 0.5 mg/L (≈ 0.447 µM)
  Minimum inhibitory concentration, Pa FADDI-PA022: 1 mg/L (≈ 0.893 µM)
  Minimum inhibitory concentration, Pa FADDI-PA025: 4 mg/L (≈ 3.57 µM)

## CC[C@@H]1NC(=O)[C@@H](CC(C)C)NC(=O)[C@H](CCN)NC(=O)[C@@H](NC(=O)[C@H](CN)NC(=O)[C@@H](NC(=O)[C@H](CCN)NC(=O)c2cccc(C)c2C)[C@@H](C)O)CCNC(=O)[C@H]([C@@H](C)O)NC(=O)[C@H](CCN)NC(=O)[C@H](CCN)NC1=O [Compound 91] (X25-[Dab]T[Dap][Dab][Dab][dL][Abu][Dab][Dab]T; lactam 4-C)
Acinetobacter baumannii
  Minimum inhibitory concentration, Ab A ATCC 17978: 1 mg/L (≈ 0.893 µM)
  Minimum inhibitory concentration, Ab ATCC 19606: 4 mg/L (≈ 3.57 µM)
  Minimum inhibitory concentration, Ab FADDI-AB034: 2 mg/L (≈ 1.79 µM)
Enterobacter cloacae
  Minimum inhibitory concentration, Ec FADDI-EC001: <0.125 mg/L
  Minimum inhibitory concentration, Ec FADDI-EC003: <0.125 mg/L
  Minimum inhibitory concentration, Ec FADDI-EC006: 0.5 mg/L (≈ 0.447 µM)
Pseudomonas aeruginosa
  Minimum inhibitory concentration, Pa ATCC 27853: 0.5 mg/L (≈ 0.447 µM)
  Minimum inhibitory concentration, Pa FADDI-PA022: 2 mg/L (≈ 1.79 µM)
  Minimum inhibitory concentration, Pa FADDI-PA025: 4 mg/L (≈ 3.57 µM)

## CCCCCCCC(=O)N[C@@H](CCN)C(=O)N[C@H](C(=O)N[C@@H](CN)C(=O)N[C@H]1CCNC(=O)[C@H]([C@@H](C)O)NC(=O)[C@H](CCN)NC(=O)[C@H](CCCN)NC(=O)[C@H]([C@@H](C)O)NC(=O)[C@@H](CC(C)C)NC(=O)[C@H](CCN)NC1=O)[C@@H](C)O [Compound 54] (Octanoyl-[Dab]T[Dap][Dab][Dab][dL]T[Orn][Dab]T; lactam 4-C)
Acinetobacter baumannii
  Minimum inhibitory concentration, Ab A ATCC 17978: 0.5 mg/L (≈ 0.437 µM)
  Minimum inhibitory concentration, Ab ATCC 19606: 0.5 mg/L (≈ 0.437 µM)
  Minimum inhibitory concentration, Ab FADDI-AB034: 0.25 mg/L (≈ 0.219 µM)
Enterobacter cloacae
  Minimum inhibitory concentration, Ec FADDI-EC001: <0.125 mg/L
  Minimum inhibitory concentration, Ec FADDI-EC003: <0.125 mg/L
  Minimum inhibitory concentration, Ec FADDI-EC006: 0.25 mg/L (≈ 0.219 µM)
Pseudomonas aeruginosa
  Minimum inhibitory concentration, Pa ATCC 27853: 4 mg/L (≈ 3.5 µM)
  Minimum inhibitory concentration, Pa FADDI-PA022: 2 mg/L (≈ 1.75 µM)
  Minimum inhibitory concentration, Pa FADDI-PA025: 16 mg/L (≈ 14 µM)

## CCCCCCCC(=O)N[C@@H](CCN)C(=O)N[C@H](C(=O)N[C@@H](CCN)C(=O)N[C@H]1CCCNC(=O)[C@H]([C@@H](C)O)NC(=O)[C@H](CCN)NC(=O)[C@H](CCN)NC(=O)[C@H]([C@@H](C)O)NC(=O)[C@@H](CC(C)C)NC(=O)[C@H](CCN)NC1=O)[C@@H](C)O [Compound 149] (Octanoyl-[Dab]T[Dab][Orn][Dab][dL]T[Dab][Dab]T; lactam 4-C)
Acinetobacter baumannii
  Minimum inhibitory concentration (MIC), Ab ATCC 17978: >32 mg/L
  Minimum inhibitory concentration (MIC), Ab ATCC 19606: >32 mg/L
  Minimum inhibitory concentration (MIC), Ab FADDI-AB034: >32 mg/L
Enterobacter cloacae
  Minimum inhibitory concentration (MIC), Ec FADDI-EC001: >32 mg/L
  Minimum inhibitory concentration (MIC), Ec FADDI-EC003: >32 mg/L
  Minimum inhibitory concentration (MIC), Ec FADDI-EC006: >32 mg/L
Pseudomonas aeruginosa
  Minimum inhibitory concentration (MIC), Pa ATCC 27853: >32 mg/L
  Minimum inhibitory concentration (MIC), Pa FADDI-PA022: >32 mg/L
  Minimum inhibitory concentration (MIC), Pa FADDI-PA025: >32 mg/L

## CC[C@@H]1NC(=O)[C@@H](CC(C)C)NC(=O)[C@H](CCN)NC(=O)[C@@H](NC(=O)[C@H](CN)NC(=O)[C@@H](NC(=O)[C@H](CCN)NC(=O)Cc2ccc(C)cc2)[C@@H](C)O)CCNC(=O)[C@H]([C@@H](C)O)NC(=O)[C@H](CCN)NC(=O)[C@H](CCN)NC1=O [Compound 80] ({Phenylacetyl(4-Me)}-[Dab]T[Dap][Dab][Dab][dL][Abu][Dab][Dab]T; lactam 4-C)
Acinetobacter baumannii
  Minimum inhibitory concentration, Ab A ATCC 17978: 1 mg/L (≈ 0.893 µM)
  Minimum inhibitory concentration, Ab ATCC 19606: 4 mg/L (≈ 3.57 µM)
  Minimum inhibitory concentration, Ab FADDI-AB034: 2 mg/L (≈ 1.79 µM)
Enterobacter cloacae
  Minimum inhibitory concentration, Ec FADDI-EC001: <0.125 mg/L
  Minimum inhibitory concentration, Ec FADDI-EC003: 0.25 mg/L (≈ 0.223 µM)
  Minimum inhibitory concentration, Ec FADDI-EC006: 4 mg/L (≈ 3.57 µM)
Pseudomonas aeruginosa
  Minimum inhibitory concentration, Pa ATCC 27853: 0.5 mg/L (≈ 0.447 µM)
  Minimum inhibitory concentration, Pa FADDI-PA022: 1 mg/L (≈ 0.893 µM)
  Minimum inhibitory concentration, Pa FADDI-PA025: 2 mg/L (≈ 1.79 µM)

## CC[C@@H]1NC(=O)[C@@H](CC(C)C)NC(=O)[C@H](CCN)NC(=O)[C@@H](NC(=O)[C@H](CN)NC(=O)[C@@H](NC(=O)[C@H](CCN)NC(=O)CCc2ccccc2)[C@@H](C)O)CCNC(=O)[C@H]([C@@H](C)O)NC(=O)[C@H](CCN)NC(=O)[C@H](CCN)NC1=O [Compound 145] (Hydrocinnamoyl-[Dab]T[Dap][Dab][Dab][dL][Abu][Dab][Dab]T; lactam 4-C)
Acinetobacter baumannii; Acinetobacter baumannii ATCC 17978, broth microdilution in CAMHB, TFA salt
  Minimum inhibitory concentration (MIC), Ab ATCC 17978: 0.5 mg/L
Acinetobacter baumannii; Acinetobacter baumannii ATCC 19606, broth microdilution in CAMHB, TFA salt
  Minimum inhibitory concentration (MIC), Ab ATCC 19606: 1 mg/L
Acinetobacter baumannii; Acinetobacter baumannii FADDI-AB034, broth microdilution in CAMHB, TFA salt
  Minimum inhibitory concentration (MIC), Ab FADDI-AB034: 0.5 mg/L
Enterobacter cloacae; Enterobacter cloacae FADDI-EC001, broth microdilution in CAMHB, TFA salt
  Minimum inhibitory concentration (MIC), Ec FADDI-EC001: 0.5 mg/L
Enterobacter cloacae; Enterobacter cloacae FADDI-EC003, broth microdilution in CAMHB, TFA salt
  Minimum inhibitory concentration (MIC), Ec FADDI-EC003: <0.125 mg/L
Enterobacter cloacae; Enterobacter cloacae FADDI-EC006, broth microdilution in CAMHB, TFA salt
  Minimum inhibitory concentration (MIC), Ec FADDI-EC006: <0.125 mg/L
Pseudomonas aeruginosa; Pseudomonas aeruginosa ATCC 27853, broth microdilution in CAMHB, TFA salt
  Minimum inhibitory concentration (MIC), Pa ATCC 27853: 0.5 mg/L
Pseudomonas aeruginosa; Pseudomonas aeruginosa FADDI-PA022, broth microdilution in CAMHB, TFA salt
  Minimum inhibitory concentration (MIC), Pa FADDI-PA022: 0.5 mg/L
Pseudomonas aeruginosa; Pseudomonas aeruginosa FADDI-PA025, broth microdilution in CAMHB, TFA salt
  Minimum inhibitory concentration (MIC), Pa FADDI-PA025: 1 mg/L

## CC[C@@H]1NC(=O)[C@@H](CC(C)C)NC(=O)[C@H](CCN)NC(=O)[C@@H](NC(=O)[C@H](CN)NC(=O)[C@@H](NC(=O)[C@H](CCN)NC(=O)Cc2ccccc2Cl)[C@@H](C)O)CCNC(=O)[C@H]([C@@H](C)O)NC(=O)[C@H](CCN)NC(=O)[C@H](CCN)NC1=O [Compound 84] (X39-[Dab]T[Dap][Dab][Dab][dL][Abu][Dab][Dab]T; lactam 4-C)
Acinetobacter baumannii
  Minimum inhibitory concentration, Ab A ATCC 17978: 2 mg/L (≈ 1.75 µM)
  Minimum inhibitory concentration, Ab ATCC 19606: 8 mg/L (≈ 7.02 µM)
  Minimum inhibitory concentration, Ab FADDI-AB034: 2 mg/L (≈ 1.75 µM)
Enterobacter cloacae
  Minimum inhibitory concentration, Ec FADDI-EC001: <0.125 mg/L
  Minimum inhibitory concentration, Ec FADDI-EC003: 0.25 mg/L (≈ 0.219 µM)
  Minimum inhibitory concentration, Ec FADDI-EC006: 0.5 mg/L (≈ 0.439 µM)
Pseudomonas aeruginosa
  Minimum inhibitory concentration, Pa ATCC 27853: 0.5 mg/L (≈ 0.439 µM)
  Minimum inhibitory concentration, Pa FADDI-PA022: 2 mg/L (≈ 1.75 µM)
  Minimum inhibitory concentration, Pa FADDI-PA025: 2 mg/L (≈ 1.75 µM)

## CCCCCCCCCCCC(=O)N[C@@H](CCN)C(=O)N[C@H](C(=O)N[C@H](CO)C(=O)N[C@H]1CCNC(=O)[C@H]([C@@H](C)O)NC(=O)[C@H](CCN)NC(=O)[C@H](CCN)NC(=O)[C@H]([C@@H](C)O)NC(=O)[C@@H](CC(C)C)NC(=O)[C@H](CCN)NC1=O)[C@@H](C)O [Compound 10] (Lauroyl-[Dab]T[dS][Dab][Dab][dL]T[Dab][Dab]T; lactam 4-C)
Acinetobacter baumannii
  Minimum inhibitory concentration, Ab A ATCC 17978: 0.5 mg/L (≈ 0.421 µM)
  Minimum inhibitory concentration, Ab ATCC 19606: 1 mg/L (≈ 0.843 µM)
  Minimum inhibitory concentration, Ab FADDI-AB034: 1 mg/L (≈ 0.843 µM)
Enterobacter cloacae
  Minimum inhibitory concentration, Ec FADDI-EC001: 1 mg/L (≈ 0.843 µM)
  Minimum inhibitory concentration, Ec FADDI-EC003: 0.5 mg/L (≈ 0.421 µM)
  Minimum inhibitory concentration, Ec FADDI-EC006: 1 mg/L (≈ 0.843 µM)
Pseudomonas aeruginosa
  Minimum inhibitory concentration, Pa ATCC 27853: 2 mg/L (≈ 1.69 µM)
  Minimum inhibitory concentration, Pa FADDI-PA022: 4 mg/L (≈ 3.37 µM)
  Minimum inhibitory concentration, Pa FADDI-PA025: 4 mg/L (≈ 3.37 µM)
